{"source": "paper PMC12419922", "about": "“Myristoylated Cathelicidin-DM Fused With ANG1-7: A Novel Self-Assembling Antimicrobial Peptide for the Treatment and Mechanism of Diabetic Infected Wounds” (Journal of Diabetes Research, 2025)", "key": {"HUVECs [1]": {"test_system": "HUVECs", "assay": "Scratch wound healing assay", "assay_type": "cell-based, human", "settings": "HG + LPS, 20 μg/mL, n = 3", "experimental": "In a 6-well plate, HUVECs (2 × 10^5 cells/well) were seeded. The cells were starved in serum-free medium for 12 h, and then, a scratch was made vertically using a 200-μL pipette tip. […]"}, "HUVECs [2]": {"test_system": "HUVECs", "assay": "Mitochondrial membrane potential, JC-1", "assay_type": "cell-based, human", "settings": "HG + LPS, 20 μg/mL, p < 0.0001", "experimental": "JC-1 is a widely used and ideal fluorescent probe for detecting MMP. When the MMP is high, JC-1 accumulates in the matrix of the mitochondria, forming J-aggregates that emit red fluorescence. When the MMP is low, JC-1 cannot accumulate in the mitochondrial matrix, remaining as a monomer that emits green fluorescence. HUVECs were cultured in well plates containing DMEM at a density of 1 × 10^6 cells/well. Following the indicated treatments, the slides were washed three times with PBS and the cells were incubated with 1 mg/l JC-1 at 37°C for 30 min in the incubator, washed briefly three times with PBS. The fluorescence was measured over the entire field of vision using a fluorescent microscope connected to an inverted fluorescence microscope (ThermoFish EVOS, United States). The experiment was repeated three times."}, "HUVECs [3]": {"test_system": "HUVECs", "assay": "MDA, thiobarbituric acid method", "assay_type": "cell-based, human", "settings": "HUVEC supernatant, HG + LPS (HG + LPS increased by 1.65 times); n = 3", "experimental": "The level of MDA was determined by the thiobarbituric acid (TBA) method. Briefly, 100 μL of cell supernatant was mixed with 200 μL of a 10% trichloroacetic acid solution of 0.67% TBA. The mixture was incubated at 95°C for 30 min, cooled on ice, and centrifuged at 12,000 × g at 4°C for 10 min. The absorbance of the supernatant was measured at 532 nm using an enzyme-labeled instrument. The experiments were repeated three times."}, "E. coli (ATCC 25922)": {"test_system": "E. coli (ATCC 25922)", "assay": "MIC and growth inhibition, broth microdilution", "assay_type": "cell-based, Escherichia coli", "experimental": "The minimum inhibitory concentrations (MICs) of DM and MYR-DM-ANG1-7 were determined using the broth microdilution method. E. coli (ATCC 25922) and S. aureus (ATCC 25923) were cultured overnight in Mueller–Hinton broth (MHB) at 37°C. The cultures were diluted to 2 × 10^5 CFU/mL. The peptides were serially diluted in 10 mM phosphate-buffered solution (PBS) and added to a 96-well plate. The bacterial suspensions were mixed with an equal volume of peptide solution and incubated at 37°C for 18 h. Bacterial growth inhibition was determined by measuring the absorbance at 600 nm using a M200 multiwavelength microplate reader (Infinite M200 PRO, Switzerland). Subsequently, bacterial suspensions were treated with 1 × MIC, 2 × MIC, 3 × MIC, and 4 × MIC concentrations of the AMPs and sampled at 0, 3, 6, 12, 18, and 24 h. The absorbance was measured at 600 nm. The experiment was repeated three times."}}, "note": "Where no end group is shown, it is not given here. The star is where a group is joined. Myristoyl = CCCCCCCCCCCCCC(=O)*", "data": [{"substance": "Myristoyl-SSRRKPCKGWLCKLKLRGGYTLIGSATNLNRPTYVRAGGGDRVYIHP (cysteines drawn unpaired) [MYR-DM-ANG1-7]", "values": [{"measurement": "wound healing rate (scratch assay)", "setting": "HUVECs [1]; after 12 h", "value": 61.6, "unit": "%"}, {"measurement": "healing area (scratch assay)", "setting": "HUVECs [1]; at 48 h", "value": 100, "unit": "%"}, {"measurement": "mitochondrial membrane potential (JC-1)", "setting": "HUVECs [2]", "value": "increase"}, {"measurement": "secretion of MDA, decreased by", "setting": "HUVECs [3]", "value": 0.51, "unit": "times"}, {"measurement": "growth of E. coli (inhibition curve)", "setting": "E. coli (ATCC 25922); 4 × MIC (128 μg/mL), OD 600 nm at 0-24 h, repeated three times", "value": "completely inhibit"}, {"measurement": "Minimum inhibitory concentration", "setting": "E. coli (ATCC 25922); E. coli ATCC 25922, broth microdilution, MHB, 2 × 10^5 CFU/mL, 37°C, 18 h, absorbance 600 nm", "value": 12, "unit": "µg/mL"}, {"measurement": "increase of antibacterial efficacy compared to DM", "setting": "E. coli (ATCC 25922); from MIC values against S. aureus and E. coli", "value": 1.3, "unit": "fold"}]}]}
